Reference: PMC3466270 (PLoS ONE, 2012)

Target: RSL lectin (fucose binding lectin RSL) (Ralstonia pseudosolanacearum, UniProt Q8XXK6)
Experiment: biochemical

CO[C@@H]1O[C@@H](C)[C@@H](O)[C@@H](O)[C@@H]1O [α-L-Me-fucoside]
Kd: 600 nM
